Experimental data reported in patent US20230181537A1, “Translation Blockers Repurposed for COVID-19 Therapy” (priority 2020, published 2023).

Assays:
SARS-CoV-2 USA-WA1/2020 = assay type: cell-based; details: for anti-viral activity against CoV2 infection of Vero-C6 cells: Vero-C6 (African green monkey kidney cells), dose response; for viral infectivity (number of plaques): Vero-E6, MOI 0.0001 or 0.0002, drugs added after infection at 1 uM and 10 uM; for viral infectivity (plaque assay): Vero-E6, MOI 0.0002, drug at 1 uM
APP 5′UTR = test: High-throughput transfection-based APP 5′UTR luciferase reporter assay in SH-SY5Y cells; assay type: cell-based; details: high-throughput screen
APP mRNA = details: refs [25,27]; cited from earlier work
SARS-CoV-2 = test: Anti-viral efficacy assay by immunocytochemical fluorescence in infected Vero E6 cells; assay type: cell-based
From the text: 9A: Typical anti-viral efficacy assays conducted for the top COVID-19 inhibitors from a range of APP 5′UTR-directed inhibitors. In this exemplary case, Vero E6 cells were infected with SARS-CoV-2 at a multiplicity of infection of 0.1 and treated either with DMSO (negative control) or compound at the indicated concentrations. At 2 days post infection, cells were fixed and stained with an antibody against SARS-CoV-2 nucleocapsid protein. Cell nuclei were stained with DAPI. Infection rates quantified using Qupath software. 9B: Densitometric quantitation of JTR-009 dependent inhibition of Spike protein in COVID-19 infected Vero E6 cells (based on levels of Spike immunocytochemistry shown).
Initial virus assays were performed to experimentally test the benzimidazole APP 5′UTR directed translation blocker-9 (JTR-9) (FIG. 9). […] We tested JTR-009 for possible antiviral efficacy potentially via the related the CRRM motifs in the replicase open reading frame (ORF) related to the APP 5′UTR. We employed immunocytochemical fluorescence of Spike Protein as readout for viral infectivity. […] Therapeutic activity is being tested via the two CRRM RNA motifs in the virus replicase (FIG. 9).

APP 5′UTR / IRP1 = details: refs [25,27]; cited from earlier work

| Compound | anti-viral activity against CoV2 infection of Vero-C6 cells (SARS-CoV-2 USA-WA1/2020) | viral infectivity (number of plaques) (SARS-CoV-2 USA-WA1/2020) | inhibition of APP 5′UTR driven expression of a Luciferase reporter gene (APP 5′UTR) [%] | viral infectivity (plaque assay) (SARS-CoV-2 USA-WA1/2020) | also measured |
| --- | --- | --- | --- | --- | --- |
| Cc1c(OCC(F)(F)F)ccnc1C[S+]([O-])c1nc2ccccc2[nH]1 (stereo not shown) [Lansoprazole] | dose responsive anti-viral activity | inhibited viral infectivity |  |  |  |
| CCCOc1ccc2nc(NC(=O)OC)[nH]c2c1 [oxibendazole] |  |  | 85.9 |  |  |
| CN1CC[C@]2(C)c3cc(OC(=O)Nc4ccccc4)ccc3N(C)[C@H]12 [Posiphen, posiphen] |  |  |  | reduced viral infectivity |  |
| Cc1ccc2[nH]c(-c3ccc(N)cc3)nc2c1 [JTR-009] | dose responsive anti-viral activity | inhibited viral infectivity |  |  | APP mRNA translation (APP mRNA): reduced APP mRNA translation; inhibition of COVID-19 viral spike protein (densitometric quantitation) (SARS-CoV-2; FIGS. 9A-B): inhibited COVID-19 viral spike protein; COVID-19 infectivity (immunocytochemical fluorescence of Spike Protein as readout) (SARS-CoV-2; MOI 0.1, 2 days post infection): dose-dependently inhibited COVID-19 infectivity; binding of the APP 5′UTR to its cognate RNA binding protein, IRP1 (APP 5′UTR / IRP1): prevented binding |
| CCC12C=CCN3CC[C@@]4(c5ccc(OC)cc5N(C)[C@H]4[C@@](O)(C(=O)OC)[C@@H]1OC(C)=O)[C@@H]32 (mixture of isomers) [B1, vindoline] |  |  |  | reduced viral infectivity |  |
| CCCSc1ccc2nc(NC(=O)OC)[nH]c2c1 [Albendazole] | dose responsive anti-viral activity | inhibited viral infectivity | 92.2 |  |  |
| CC(O)(CCOP(=O)(O)OP(=O)(O)O)CC(=O)O (stereo not drawn) [Syn-516] |  |  |  | reduced viral infectivity |  |
| COC(=O)Nc1nc2ccc(Sc3ccccc3)cc2[nH]1 [Fenbendazole] |  |  | 91.5 |  |  |
